Assay results from patent US9580418B2, “Bicyclic aromatic carboxamide compounds useful as Pim kinase inhibitors” (Incyte Corporation, priority 2014, dated 2017).

Columns and labels:
Pim-1 = Pim-1 (Homo sapiens (Human), UniProt P11309); assay: Pim-1 kinase assay (Pim enzyme assays, Example A); format: biochemical; conditions: 1 mM ATP, BAD peptide substrate; read-out: PIM1 IC50
Description: (§1) Pim-1 and Pim-3 kinase assays-20 μL reactions were run in white 384 well polystyrene plates dotted with 0.8 μL compound/DMSO in the assay buffer (50 mM Tris, pH 7.5, 0.01% Tween-20, 5 mM mgCl2, 0.01% BSA, 5 mM DTT), containing 0.05 μM Biotin-labeled BAD peptide substrate (AnaSpec 62269), 1 mM ATP, and 2.5 pM (Pim-1, Invitrogen PV3503) or 1.25 pM (Pim-3, Millipore 14-738) enzyme for 1 h at 25° C. Reactions were stopped by addition of 10 μL STOP Buffer (150 mM Tris, pH=7.5, 150 mM NaCl, 75 mM EDTA, 0.01% Tween-20, 0.3% BSA,) supplemented with Phospho-Bad (Ser112) Antibody (Cell Signaling 9291) diluted 666-fold, and Streptavidin donor beads (PerkinElmer 6760002) along with Protein-A acceptor beads (PerkinElmer 6760137) at 15 μg/mL each. Supplementation of the STOP buffer with beads and stopping the reactions were done under reduced light. Prior to the stopping reactions STOP buffer with beads was preincubated for 1 h in the dark at room temperature. After stopping the reactions, plates were incubated for 1 h in the dark at room temperature before reading on a PHERAstar FS plate reader (BMG Labtech) under reduced light.

Pim-2 = Pim-2 (Homo sapiens (Human), UniProt Q9P1W9); assay: Pim-2 kinase assay (Pim enzyme assays, Example A); format: biochemical; conditions: 1 mM ATP, CREBtide peptide substrate; read-out: PIM2 IC50
Pim-2, sequence (Q9P1W9 whole entry): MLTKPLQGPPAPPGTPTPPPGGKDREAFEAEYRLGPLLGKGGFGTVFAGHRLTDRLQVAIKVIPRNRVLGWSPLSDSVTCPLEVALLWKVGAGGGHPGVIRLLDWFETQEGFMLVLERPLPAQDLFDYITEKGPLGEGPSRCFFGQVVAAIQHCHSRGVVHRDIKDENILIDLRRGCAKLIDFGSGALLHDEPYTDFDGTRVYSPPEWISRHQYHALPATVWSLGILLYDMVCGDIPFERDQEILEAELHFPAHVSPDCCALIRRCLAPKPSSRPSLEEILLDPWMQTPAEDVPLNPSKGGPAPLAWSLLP
Description: Pim-2 kinase assay-20 μL reactions were run in white 384 well polystyrene plates dotted with 0.8 μL compound/DMSO in the assay buffer (50 mM Tris, pH 7.5, 0.01% Tween-20, 5 mM mgCl2, 0.01% BSA, 5 mM DTT), containing 0.05 μM Fluorescein-labeled CREBtide peptide substrate (Invitrogen PV3508), 1 mM ATP, and 1 nM enzyme (Invitrogen PV3649) for 2 h at 25° C. Reactions were stopped by addition of 10 μL TR-FRET Dilution Buffer (Invitrogen PV3574) with 30 mM EDTA and 1.5 nM LanthaScreen Tb-CREB pSer133 antibody (Invitrogen PV3566). After 30 min. incubation at room temperature, plates were read on a PHERAstar FS plate reader (BMG Labtech).

Pim-3 = Pim-3 (Homo sapiens (Human), UniProt Q86V86); assay: Pim-3 kinase assay (Pim enzyme assays, Example A); format: biochemical; conditions: 1 mM ATP, BAD peptide substrate; read-out: PIM3 IC50
Description: as §1

pBAD in KMS.12.BM cells = assay: Pim pBAD signaling assay in KMS.12.BM cells (Example B); format: cell-based; conditions: Homo sapiens, 2.5 h incubation, pBAD ELISA
Description: KG-1A cells are purchased from ATCC (Manassas, Va.) and KMS.12.BM cells are purchased from NIBIO, JCRB cell bank (Tokyo, Japan) and maintained in the culture mediums recommended, RPMI, 10% FBS and IMDM 20% FBS (Mediatech, Manassas, Va.) respectively. To measure the pBAD inhibitory activity of the compounds, both cell lines are plated with the culture medium (1×10^6/well/100 μL for KG1A and 4×10^5 cells/well/in 100 μL for KMS12BM) into 96-well V bottom polypropylene plates (Matrix, Thermo Fisher, USA) and incubated 30 min. at 37° C. to normalize cell signaling from handling. Test compounds are added at an appropriate concentration range and further incubated for 2.5 h for KMS.12.BM cells and 4 h for KG1-A cells. Plates are centrifuged at 2000 RPM for 10 min. and supernatants aspirated. 100 μL lysis buffer with protease inhibitors (Cell Signaling Technologies, Danver, Mass., Sigma, St Louis Mo., EMD, USA) is added to the pellets, mixed well and set on ice for 30 min. Lysates are frozen overnight at −80° C. To measure the pBAD activity, a Cell Signaling ELISA kit (Cell Signaling Path Scan phosphor pBAD ELISA) is utilized. 50 μL of the lysate is tested per the ELISA protocol and the data analysis is performed by software on a SpectrMax5 plate reader (Molecular Devices, Sunnyvale, Calif.). IC50 determination is performed by fitting the curve of percent inhibition versus the log of the inhibitor concentration using the GraphPad Prism 5.0 software.

Pim-1, sequence (P11309 whole entry): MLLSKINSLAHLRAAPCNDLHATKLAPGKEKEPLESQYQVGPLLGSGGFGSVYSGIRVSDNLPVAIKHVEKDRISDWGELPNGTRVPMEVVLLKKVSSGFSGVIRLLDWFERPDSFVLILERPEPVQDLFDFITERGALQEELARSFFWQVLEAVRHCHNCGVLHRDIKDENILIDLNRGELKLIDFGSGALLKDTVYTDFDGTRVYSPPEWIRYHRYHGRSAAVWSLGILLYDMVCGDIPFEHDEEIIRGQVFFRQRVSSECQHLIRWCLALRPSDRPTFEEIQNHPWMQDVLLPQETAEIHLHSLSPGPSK

Structure (SMILES)	IC50 (Pim-1)	IC50 (Pim-2)	IC50 (Pim-3)	IC50 (pBAD in KMS.12.BM cells)
C[C@@H]1C[C@H](N)CN(c2ccncc2NC(=O)c2ccc3ccc(N4CCC5(CCOCC5)CC4)cc3n2)C1 [Example 15, N-{4-[(3S,5R)-3-Amino-5-methylpiperidin-1-yl]pyridin-3-yl}-7-(3-oxa-9-azaspiro[5.5]undec-9-yl)quinoline-2-carboxamide]	≤ 10 nM	100 to 1000 nM	≤ 10 nM	50 to 250 nM
C[C@H]1CN(c2ccncc2NC(=O)c2ccc3ccc(N4CCC(C#N)CC4)cc3n2)C[C@@H](N)[C@@H]1O [Example 16, N-{4-[(3R,4R,5S)-3-Amino-4-hydroxy-5-methylpiperidin-1-yl]pyridin-3-yl}-7-(4-cyanopiperidin-1-yl)quinoline-2-carboxamide]	≤ 10 nM	≤ 100 nM	≤ 10 nM	≤ 50 nM
C[C@@H]1C[C@H](N)CN(c2ccncc2NC(=O)c2ccc3ccc(N4CCC(C#N)CC4)cc3n2)C1 [Example 17, N-{4-[(3S,5R)-3-Amino-5-methylpiperidin-1-yl]pyridin-3-yl}-7-(4-cyanopiperidin-1-yl)quinoline-2-carboxamide]	≤ 10 nM	100 to 1000 nM	≤ 10 nM	50 to 250 nM
C[C@H]1CN(c2ccncc2NC(=O)c2ccc3ccc(N4CCN(C)CC4)cc3n2)C[C@@H](N)[C@@H]1O [Example 18, N-{4-[(3R,4R,5S)-3-Amino-4-hydroxy-5-methylpiperidin-1-yl]pyridin-3-yl}-7-(4-methylpiperazin-1-yl)quinoline-2-carboxamide]	≤ 10 nM	100 to 1000 nM	≤ 10 nM	50 to 250 nM
C[C@@H]1C[C@H](N)CN(c2ccncc2NC(=O)c2ccc3ccc(N4CCN(C)CC4)cc3n2)C1 [Example 19, N-{4-[(3S,5R)-3-Amino-5-methylpiperidin-1-yl]pyridin-3-yl}-7-(4-methylpiperazin-1-yl)quinoline-2-carboxamide]	≤ 10 nM	100 to 1000 nM	≤ 10 nM	250 to 2000 nM
C[C@H]1CN(c2ccncc2NC(=O)c2ccc3ccc(N4CCC(c5ccncc5)CC4)cc3n2)C[C@@H](N)[C@@H]1O [Example 20, N-{4-[(3R,4R,5S)-3-Amino-4-hydroxy-5-methylpiperidin-1-yl]pyridin-3-yl}-7-(4-pyridin-4-ylpiperidin-1-yl)quinoline-2-carboxamide]	≤ 10 nM	≤ 100 nM	≤ 10 nM	50 to 250 nM
C[C@@H]1C[C@H](N)CN(c2ccncc2NC(=O)c2ccc3ccc(N4CCC(c5ccncc5)CC4)cc3n2)C1 [Example 21, N-{4-[(3S,5R)-3-Amino-5-methylpiperidin-1-yl]pyridin-3-yl}-7-(4-pyridin-4-ylpiperidin-1-yl)quinoline-2-carboxamide]	≤ 10 nM	100 to 1000 nM	≤ 10 nM	50 to 250 nM
CCN1CCN(c2ccc3ccc(C(=O)Nc4cnccc4N4C[C@@H](N)[C@H](O)[C@@H](C)C4)nc3c2)CC1=O [Example 22, N-{4-[(3R,4R,5S)-3-Amino-4-hydroxy-5-methylpiperidin-1-yl]pyridin-3-yl}-7-(4-ethyl-3-oxopiperazin-1-yl)quinoline-2-carboxamide]	≤ 10 nM	≤ 100 nM	≤ 10 nM	≤ 50 nM
CCN1CCN(c2ccc3ccc(C(=O)Nc4cnccc4N4C[C@H](C)C[C@H](N)C4)nc3c2)CC1=O [Example 23, N-{4-[(3S,5R)-3-Amino-5-methylpiperidin-1-yl]pyridin-3-yl}-7-(4-ethyl-3-oxopiperazin-1-yl)quinoline-2-carboxamide]	≤ 10 nM	≤ 100 nM	≤ 10 nM	≤ 50 nM
COC1CCN(c2ccc3ccc(C(=O)Nc4cnccc4N4C[C@@H](N)[C@H](O)[C@@H](C)C4)nc3c2)CC1 [Example 24, N-{4-[(3R,4R,5S)-3-Amino-4-hydroxy-5-methylpiperidin-1-yl]pyridin-3-yl}-7-(4-methoxypiperidin-1-yl)quinoline-2-carboxamide]	≤ 10 nM	≤ 100 nM	≤ 10 nM	≤ 50 nM
COC1CCN(c2ccc3ccc(C(=O)Nc4cnccc4N4C[C@H](C)C[C@H](N)C4)nc3c2)CC1 [Example 25, N-{4-[(3S,5R)-3-Amino-5-methylpiperidin-1-yl]pyridin-3-yl}-7-(4-methoxypiperidin-1-yl)quinoline-2-carboxamide]	≤ 10 nM	≤ 100 nM	≤ 10 nM	≤ 50 nM
C[C@H]1CN(c2ccncc2NC(=O)c2ccc3ccc(N4CCC(N5CCOCC5)CC4)cc3n2)C[C@@H](N)[C@@H]1O [Example 26, N-{4-[(3R,4R,5S)-3-Amino-4-hydroxy-5-methylpiperidin-1-yl]pyridin-3-yl}-7-(4-morpholin-4-ylpiperidin-1-yl)quinoline-2-carboxamide]	≤ 10 nM	≤ 100 nM	≤ 10 nM	50 to 250 nM
C[C@@H]1C[C@H](N)CN(c2ccncc2NC(=O)c2ccc3ccc(N4CCC(N5CCOCC5)CC4)cc3n2)C1 [Example 27, N-{4-[(3S,5R)-3-Amino-5-methylpiperidin-1-yl]pyridin-3-yl}-7-(4-morpholin-4-ylpiperidin-1-yl)quinoline-2-carboxamide]	≤ 10 nM	100 to 1000 nM	≤ 10 nM	50 to 250 nM
C[C@H]1CN(c2ccncc2NC(=O)c2ccc3ccc(N4CCCC4)cc3n2)C[C@@H](N)[C@@H]1O [Example 30, N-{4-[(3R,4R,5S)-3-Amino-4-hydroxy-5-methylpiperidin-1-yl]pyridin-3-yl}-7-pyrrolidin-1-ylquinoline-2-carboxamide]	≤ 10 nM	≤ 100 nM	≤ 10 nM	50 to 250 nM
C[C@@H]1C[C@H](N)CN(c2ccncc2NC(=O)c2ccc3ccc(N4CCCC4)cc3n2)C1 [Example 31, N-{4-[(3S,5R)-3-Amino-5-methylpiperidin-1-yl]pyridin-3-yl}-7-pyrrolidin-1-ylquinoline-2-carboxamide]	≤ 10 nM	100 to 1000 nM	≤ 10 nM	50 to 250 nM
C[C@@H]1C[C@H](N)CN(c2ccncc2NC(=O)c2ccc3ccc(N4CCC4)cc3n2)C1 [Example 34, N-{4-[(3S,5R)-3-Amino-5-methylpiperidin-1-yl]pyridin-3-yl}-7-azetidin-1-ylquinoline-2-carboxamide]	≤ 10 nM	≤ 100 nM	≤ 10 nM	50 to 250 nM
COc1cc(F)c(-c2cnc3ccc(C(=O)Nc4cnccc4N4C[C@@H](N)[C@H](O)[C@@H](C5CC5)C4)nc3c2)c(F)c1 [Example 35, N-{4-[(3R,4R,5S)-3-Amino-5-cyclopropyl-4-hydroxypiperidin-1-yl]pyridin-3-yl}-7-(2,6-difluoro-4-methoxyphenyl)-1,5-naphthyridine-2-carboxamide]	≤ 10 nM	≤ 100 nM	≤ 10 nM	≤ 50 nM
COc1ccc(-c2cnc3ccc(C(=O)Nc4cnccc4N4C[C@@H](N)[C@H](O)[C@@H](C5CC5)C4)nc3c2)cn1 [Example 36, N-{4-[(3R,4R,5S)-3-Amino-5-cyclopropyl-4-hydroxypiperidin-1-yl]pyridin-3-yl}-7-(6-methoxypyridin-3-yl)-1,5-naphthyridine-2-carboxamide]	≤ 10 nM	≤ 100 nM	≤ 10 nM	≤ 50 nM
